Experimental data: patent US20250222003A1, “PHARMACEUTICAL COMPOSITION FOR TREATING SOLID TUMORS” (Eisai R&D Management Co., Ltd., priority 2021, published 2025)

What was measured:
[1] = test system: patients with a solid tumor; conditions: human, in vivo
Experimental: This study was carried out as an open-label phase I clinical trial for Compound A. The study was composed of a dose-escalation part to evaluate the safety and tolerability of Compound A, and an expansion part to evaluate the safety, tolerability and preliminary efficacy of Compound A. Each dose in the Examples is expressed as a dose of Compound A in free form.
In the dose-escalation part, the safety and tolerability of Compound A was evaluated at a plurality of doses using a 3+3 design. The starting dose of Compound A was set at 10 mg BID (twice daily).
NCI CTCAE v5.0 was used to evaluate the severity.
This was performed using the analysis subject populations for all safety evaluations (excluding DLT evaluations).
Summary statistics for the safety data (continuous variables: number of cases, mean value, standard deviation, median, minimum and maximum values; categorical variables: number of cases and proportion) were calculated based on the actually administered treatments. […] The following laboratory tests were performed: hematological tests (red blood cell count, hemoglobin, hematocrit value, platelet count, white blood cell count, white blood cell fractions (neutrophils, lymphocytes, monocytes, eosinophils, basophils) coagulation test: INR), blood biochemical tests (liver function tests (AST, ALT, ALP, GGT, total bilirubin, direct bilirubin), renal function test (BUN, creatinine), other tests (blood glucose level, albumin, cholesterol, LDH, total protein, uric acid, amylase, lipase, Na, K, Cl, Ca, phosphorus, Mg, virus test: HBs antigen a, HBs antibody a, HBc antibody a, HCV antibody a, HIV antibody a, HBV DNAb, B-CTXc, 25-hydroxyvitamin Dd), and urine test (pH, protein, sugar, ketone bodies, occult blood, specific gravity)).

[2] = test system: patients with a solid tumor; assay: Suppression of nausea or vomiting associated with administration of Compound A by antiemetics; format: in vivo, human
Source text: For subjects of administration that had the gastrointestinal symptoms, nausea or vomiting, the results of administration of various antiemetics were investigated to determine whether they could suppress the occurrence of nausea or vomiting. The antiemetics used were domperidone ([…], Nauzelin tablet), metoclopramide (peripheral D2 receptor antagonist, metoclopramide tablet), ramosetron hydrochloride (5-HT3 receptor antagonist, Nasea tablet), granisetron (5-HT3 receptor antagonist (Kytril tablet), and the like.
The antiemetics were timely administered to 20 subjects of administration that complained of vomiting during Cycle 1.
FIGS. 1 and 2 are graphs showing the relationship between Cmax(Cmax,ss) or AUC (AUC(0-tau),ss) and the vomiting flag for each test subject at the time of CID8. For example, the vomiting flag 3 means a case in which treatment with an antiemetic other than the 5-HT3 receptor antagonist was first attempted but vomiting could not be suppressed, and vomiting could be suppressed when the antiemetic was switched to the 5-HT3 receptor antagonist.
Five additional patients were investigated whether the occurrence of nausea or vomiting, which is an adverse event having a causal relationship with Compound A, could be suppressed. Ramosetron hydrochloride or granisetron hydrochloride (5-HT3 receptor antagonist) was administered to four patients of administration that complained of vomiting during Cycle 1. Of the four patients that complained of vomiting, three patients received granisetron hydrochloride to prevent the gastrointestinal symptoms (nausea, vomiting) associated with administration of Compound A.

C=CCN1CC(=O)N2[C@@H](Cc3ccc(O)cc3F)C(=O)N(Cc3cccc(N4CC(N5CCN(CC)CC5)C4)n3)C[C@@H]2N1C(=O)NCc1ccccc1 [Compound A, (6S,9aS)—N-benzyl-8-({6-[3-(4-ethylpiperazin-1-yl)azetidin-1-yl]pyridin-2-yl}methyl)-6-(2-fluoro-4-hydroxybenzyl)-4,7-dioxo-2-(prop-2-en-1-yl)hexahydro-2H-pyrazino[2,1-c][1,2,4]triazine-1 (6H)-carboxamide]
Subjects with Any Treatment-related TEAEs, Any Grade, (%) [1]: (89.3) %
Subjects with Any Treatment-related TEAEs, Grade ≥3, (%) [1]: (10.7) %
TEAE Alanine aminotransferase increased, Any Grade, (%) [1]: (14.3) %
TEAE Amylase increased, Any Grade, (%) [1]: (3.6) %
TEAE Anemia, Any Grade, (%) [1]: (10.7) %
TEAE Aspartate aminotransferase increased, Any Grade, (%) [1]: (14.3) %
TEAE C-telopeptide increased, Any Grade, (%) [1]: (3.6) %
TEAE Decreased appetite, Any Grade, (%) [1]: (10.7) %
TEAE Decreased appetite, Grade ≥3, (%) [1]: (7.1) %
TEAE Diarrhea, Any Grade, (%) [1]: (7.1) %
TEAE Electrocardiogram QT prolonged, Any Grade, (%) [1]: (3.6) %
TEAE Hyperphosphatemia, Any Grade, (%) [1]: (3.6) %
TEAE Lipase increased, Any Grade, (%) [1]: (3.6) %
TEAE Lipase increased, Grade ≥3, (%) [1]: (3.6) %
TEAE Liver disorder, Any Grade, (%) [1]: (3.6) %
TEAE Nausea, Any Grade, (%) [1]: (78.6) %
TEAE Osteoporosis, Any Grade, (%) [1]: (3.6) %
TEAE Rash, Any Grade, (%) [1]: (3.6) %
TEAE Sinus tachycardia, Any Grade, (%) [1]: (3.6) %
TEAE Stomatitis, Any Grade, (%) [1]: (3.6) %
TEAE Vomiting, Any Grade, (%) [1]: (67.9) %
TEAE White blood cell count decreased, Any Grade, (%) [1]: (7.1) %
recommended dose [1]: less than 160 mg BID
Vomiting flag 0, N: neither nausea nor vomiting observed, or antiemetics not required ([2]; Table 10, before additional cases): 10
Vomiting flag 0, N: neither nausea nor vomiting observed, or antiemetics not required ([2]; Table 14, entire dose-escalation part incl. additional cases): 11
